Common to all, as to assay type: biochemical
In one assay the target is T1, hCBS-FL (Homo sapiens, UniProt P35520).
T1 sequence (P35520 1-551): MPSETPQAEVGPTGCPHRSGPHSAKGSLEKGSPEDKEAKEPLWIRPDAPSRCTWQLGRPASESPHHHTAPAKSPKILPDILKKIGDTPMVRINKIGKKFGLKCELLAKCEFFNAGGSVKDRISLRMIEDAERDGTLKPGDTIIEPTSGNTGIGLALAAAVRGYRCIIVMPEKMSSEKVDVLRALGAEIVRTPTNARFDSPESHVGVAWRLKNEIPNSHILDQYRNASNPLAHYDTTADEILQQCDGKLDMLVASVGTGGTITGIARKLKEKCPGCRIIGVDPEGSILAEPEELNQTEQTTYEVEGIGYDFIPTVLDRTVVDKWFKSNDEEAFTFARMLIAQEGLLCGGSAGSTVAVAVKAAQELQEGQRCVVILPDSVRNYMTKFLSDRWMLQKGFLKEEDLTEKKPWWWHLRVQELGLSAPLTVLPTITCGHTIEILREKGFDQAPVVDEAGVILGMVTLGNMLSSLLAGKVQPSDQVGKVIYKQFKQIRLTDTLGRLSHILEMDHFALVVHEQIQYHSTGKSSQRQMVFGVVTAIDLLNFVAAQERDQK
Briefly: CBS enzyme assay, H2S quantified by methylene blue method. Particulars: 150 nM hCBS-FL, 200 μM SAM, 4 mM L-Cys, 4 mM D,L-Hcys, Tris-HCl pH 8.6, 80 min. Also on record: human CBS or hCSE full-length (CBS-FL or CSE) was subcloned into pGEX-KG, pcDNA3 or pCDH vector; GST (N); made in house; host or cells: E. coli BL21. The procedure: Fig. 1 CH004 inhibits the activity of hCBS in the in vitro purified enzyme assays under different assay conditions. a A scheme for the cascade enzymatic reactions catalyzed by CBS or CSE. Cth, cystathionine. b, c Inhibitory effects of CH004 on the activity of hCBS-413 (b) or hCSE (c). The enzyme activities were monitored for various concentrations of CH004 under the standard conditions (50 mM Tris-HCl, pH 8.6; “Materials and Methods” section). The result is shown as percentages of the control (DMSO, 100%). The data are shown as means ± SDS (n = 3). d The dose-dependent inhibition of CH004 on the hCBS-413 activity was measured by the tandem-well-based assay under the standard conditions except using 50 mM Hepes buffer (pH 7.4) instead of 50 mM Tris-HCl (pH 8.6). Means ± SDs (n = 3). e The dose-dependent inhibition of CH004 on the CBS activity measured by methylene blue method. […] After 80 min, the assay was stopped by added 10 μL 10% ZnAC and the generated H2S was quantified by N,N-dimethyl-p-phenylenediamine to give an absorbance at 670 nm (for details, see Materials and Methods section; ref. [53]). […]
^3The IC50 were determined for hCBS-FL by Methyl Blue method (ref. 1).

The target in the next assay is T2, hCBS-413 (Homo sapiens, UniProt P35520).
T2 construct: hCBS-413 (a C-terminal truncated hCBS 1–413); GST (N); made in house; host or cells: E. coli BL21
T2 sequence (P35520 1-413): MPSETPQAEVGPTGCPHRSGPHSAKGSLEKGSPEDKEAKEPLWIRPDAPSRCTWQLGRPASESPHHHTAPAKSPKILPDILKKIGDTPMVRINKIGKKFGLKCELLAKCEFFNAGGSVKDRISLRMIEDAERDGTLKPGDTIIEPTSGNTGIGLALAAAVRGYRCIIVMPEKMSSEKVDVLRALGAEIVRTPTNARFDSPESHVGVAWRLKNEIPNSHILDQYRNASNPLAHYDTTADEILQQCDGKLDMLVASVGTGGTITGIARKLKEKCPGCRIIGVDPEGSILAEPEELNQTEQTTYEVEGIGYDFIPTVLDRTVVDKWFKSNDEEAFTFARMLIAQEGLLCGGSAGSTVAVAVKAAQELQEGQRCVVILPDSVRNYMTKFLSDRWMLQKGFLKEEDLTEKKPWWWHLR
Description: purified hCBS-413 enzyme assay (192-tandem-well plate, H2S detected with DTNB). On the procedure:
Fig. 1 CH004 inhibits the activity of hCBS in the in vitro purified enzyme assays under different assay conditions. a A scheme for the cascade enzymatic reactions catalyzed by CBS or CSE. Cth, cystathionine. b, c Inhibitory effects of CH004 on the activity of hCBS-413 (b) or hCSE (c). The enzyme activities were monitored for various concentrations of CH004 under the standard conditions (50 mM Tris-HCl, pH 8.6; “Materials and Methods” section). The result is shown as percentages of the control (DMSO, 100%). The data are shown as means ± SDS (n = 3). d The dose-dependent inhibition of CH004 on the hCBS-413 activity was measured by the tandem-well-based assay under the standard conditions except using 50 mM Hepes buffer (pH 7.4) instead of 50 mM Tris-HCl (pH 8.6). Means ± SDs (n = 3). e The dose-dependent inhibition of CH004 on the CBS activity measured by methylene blue method. The CBS enzyme assay was performed with a 50 μl assay buffer in an Eppendorf tube under the standard assay conditions for the 192-tandem-well based assay, i.e., 50 μl 50 mM Tris-HCl buffer (pH 8.6) containing 150 nM hCBS-FL, 200 μM S-adenosyl-L-methionine, 4 mM L-Cys and 4 mM D,L-Hcys, in the presence of 0 (DMSO control), 0.01, 0.5, 1, 5, 10 or 100 μM CH004. After 80 min, the assay was stopped by added 10 μL 10% ZnAC and the generated H2S was quantified by N,N-dimethyl-p-phenylenediamine to give an absorbance at 670 nm (for details, see Materials and Methods section; ref. [53]).
(§1) The IC50 values of CH004 for hCBS-413, hCBS-413 mutants, hCBS-FL, hCSE or hDDC were determined according to the standard assay conditions otherwise indicated.
Table S2. Inhibitory effects of CH004 on hCBS WT and mutants.

The next assay concerns the target hCSE (Homo sapiens, UniProt P32929). Briefly: purified hCSE enzyme assay. Also on record: human CBS or hCSE full-length (CBS-FL or CSE) was subcloned into pGEX-KG, pcDNA3 or pCDH vector; GST (N); made in house; host or cells: E. coli BL21. The procedure:
Fig. 1 CH004 inhibits the activity of hCBS in the in vitro purified enzyme assays under different assay conditions. a A scheme for the cascade enzymatic reactions catalyzed by CBS or CSE. Cth, cystathionine. b, c Inhibitory effects of CH004 on the activity of hCBS-413 (b) or hCSE (c). The enzyme activities were monitored for various concentrations of CH004 under the standard conditions (50 mM Tris-HCl, pH 8.6; “Materials and Methods” section). The result is shown as percentages of the control (DMSO, 100%). The data are shown as means ± SDS (n = 3). d The dose-dependent inhibition of CH004 on the hCBS-413 activity was measured by the tandem-well-based assay under the standard conditions except using 50 mM Hepes buffer (pH 7.4) instead of 50 mM Tris-HCl (pH 8.6). Means ± SDs (n = 3). e The dose-dependent inhibition of CH004 on the CBS activity measured by methylene blue method. […] After 80 min, the assay was stopped by added 10 μL 10% ZnAC and the generated H2S was quantified by N,N-dimethyl-p-phenylenediamine to give an absorbance at 670 nm (for details, see Materials and Methods section; ref. [53]).
as §1

Molecules are shown by their SMILES. Values joined by “and” are separate entries in the source; they are usually repeats but may differ in a detail not shown here. Equal values may be shown once. Read-outs that look alike come from different tables or passages of the source.

Sequence of hCSE (P32929 whole entry): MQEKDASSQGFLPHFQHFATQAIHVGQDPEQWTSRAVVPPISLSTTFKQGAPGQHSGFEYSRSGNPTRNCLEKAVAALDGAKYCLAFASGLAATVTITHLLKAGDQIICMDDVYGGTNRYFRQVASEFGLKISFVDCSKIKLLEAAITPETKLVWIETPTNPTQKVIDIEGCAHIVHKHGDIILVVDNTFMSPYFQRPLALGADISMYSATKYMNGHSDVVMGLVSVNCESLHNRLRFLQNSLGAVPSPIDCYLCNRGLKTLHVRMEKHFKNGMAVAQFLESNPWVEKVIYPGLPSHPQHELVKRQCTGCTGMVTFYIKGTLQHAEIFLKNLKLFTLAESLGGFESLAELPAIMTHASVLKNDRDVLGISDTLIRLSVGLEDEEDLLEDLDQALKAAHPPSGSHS

Consider `Cn1nc(Cc2ccccc2)nc2c(=O)n(C)c(=O)nc1-2` [CH004, 3-benzyl-1,6-dimethylpyrimido[5,4-e][1,2,4]triazine-5,7(1H,6H)-dione], for which the IC50 (usually the concentration needed to halve the response being measured) on hCBS-FL is 1.71 µM and 1.7 µM; at hCBS-413 (150 nM purified CBS, 4 mM Hcys, 4 mM Cys, 50 mM Tris-HCl pH 8.6 (Table S2), read-out: IC50 hCBS WT), 1.2 ± 0.05 µM; at hCBS-413 (hCBS-413, 50 mM Hepes buffer pH 7.4 instead of Tris-HCl pH 8.6, read-out: IC50 on hCBS (Hepes; pH 7.4)), 1.1 ± 0.17 µM; on hCBS-413 (standard conditions, 50 mM Tris-HCl pH 8.6, read-out: IC50 on hCBS-413) it was ~1 µM and 1 µM; against hCSE (standard conditions, 50 mM Tris-HCl pH 8.6), 29.9 ± 5.6 µM. Besides, at hCBS-413 (Table S2), the “IC50 fold to WT, hCBS WT” value is on record as 1. In addition, the “Fold selectivity hCSE vs hCBS-413” value on hCSE (IC50 of hCSE / IC50 of hCBS-413) is given as 29.9 fold.
